Data as given in US8691761B2, “Somatostatin receptor 2 antagonists” (priority 2006, dated 2014).
Bridge positions count the residues as written; N and C are the ends. Square brackets hold non-standard residues; d marks the D form. Peptide text beside a SMILES is read from it. dPhe(4-NHCONH2) = NC(=O)Nc1ccc(C[C@@H](N)C(=O)O)cc1; Phe(4-NHCONH2) = NC(=O)Nc1ccc(C[C@H](N)C(=O)O)cc1; Trp(5-F) = N[C@@H](Cc1c[nH]c2ccc(F)cc12)C(=O)O; Phe(4-Cl) = N[C@@H](Cc1ccc(Cl)cc1)C(=O)O; 2Nal = N[C@@H](Cc1ccc2ccccc2c1)C(=O)O

Key:
Experiment in all cases: Receptor autoradiography, displacement of 125I-[Leu8,D-Trp22,Tyr25]-SRIF-28 from membrane pellet sections
Assay type in all cases: binding
hSSTR1 = molecular target: T1, hSSTR1 (Homo sapiens, UniProt P30872); settings: Table 3; mean ± SEM when N ≧ 3; read-out: sst1 binding affinity (IC50)
T1 construct: expressed in transfected cells; host or cells: CHO-K1 or CCL39 cells
Protocol: (§1) Generally, recombinant cells expressing the receptor are washed and homogenized to prepare a crude protein homogenate in a suitable buffer. In a typical assay, an amount of protein from the cell homogenate is placed into a small volume of an appropriate assay buffer at an appropriate pH. Candidate substances, such as potential SRIF agonists and antagonists, are added to the admixture in convenient concentrations, and the interaction between the candidate substance and the receptor polypeptide is monitored.
(§2) In vitro Bioassay: The effects of the various somatostatin analogs were tested in vitro for their ability to bind to isolated cloned receptors expressed on CHO-K1 cells and CCL39 cells. The molecular cloning of the genes encoding multiple somatostatin receptor subtypes permitted the individual expression of these receptors in mammalian cells and the characterization of their respective pharmacological profiles.
(§3) CHO-K1 cells were grown in Ham's F-12 medium, and CCL39 cells were grown in Dulbecco's modified Eagle's medium/Ham's F-12(1:1) mix, supplemented with 10% fetal bovine serum, 100 U/ml penicillin and 100 μg/ml streptomycin, in humidified air containing 5% CO2 at 37° C. Cells were washed twice with and scraped into ice-cold 0.05 M Tris-HCl (pH 7.4), collected by centrifugation, and homogenized using a rotor/stator/system in the same buffer. After centrifugation at 120 g for 5 min at 4° C., the supernatant was collected and centrifuged again at 48,000 g for 30 min at 4° C. The resulting pellet was resuspended in ice-cold Tris buffer, transferred into a microfuge tube, and centrifuged at 20,000 g for 15 min at 4° C. After withdrawal of the supernatant, the membrane pellet was stored at −80° C.
(§4) Receptor autoradiography was performed on 20 μm thick cryostat sections of the membrane pellets, mounted on microscope slides, and then stored at −20° C. […] Increasing concentrations of the unlabeled peptide were used ranging from 0.1-1000 nM. […] IC50 values were calculated after quantification of the data using a computer-assisted image processing system as known in this art.
(§5) The numbers in parentheses indicate the number of times the particular binding test was carried out.
(§6) Receptor autoradiography. Cell membrane pellets were prepared as previously described, and stored at −80° C. Receptor autoradiography was performed on 20-μm thick cryostat (Microm HM 500, Walldorf, Germany) sections of the membrane pellets, mounted on microscope slides, and then stored at −20° C. […] After a brief dip in distilled water to remove excess salts, the sections were dried quickly and exposed for 1 week to Kodak BioMax MR film. IC50 values were calculated after quantification of the data using a computer-assisted image processing system as described previously. […] (Reubi, J. C. “In vitro identification of vasoactive intestinal peptide receptors in human tumors: Implications for tumor imaging.” J. Nucl. Med. 1995, 36, 1846-1853).
(§7) To investigate their ssts binding properties, the peptides were tested for their ability to bind to cryostat sections from membrane pellets of cells expressing the five human ssts (Table 3).

hSSTR2 = molecular target: T2, hSSTR2 (Homo sapiens, UniProt P30874); settings: Table 3; mean ± SEM when N ≧ 3; read-out: sst2 binding affinity (IC50)
T2 construct: expressed in transfected cells; host or cells: CHO-K1 or CCL39 cells
Protocol: as §1, §2, §3, §4, §5, §6, §7

hSSTR3 = molecular target: T3, hSSTR3 (Homo sapiens, UniProt P32745); settings: Table 3; mean ± SEM when N ≧ 3; read-out: sst3 binding affinity (IC50)
T3 construct: expressed in transfected cells; host or cells: CHO-K1 or CCL39 cells
Protocol: as §1, §2, §3, §4, §5, §6, §7

hSSTR4 = molecular target: T4, hSSTR4 (Homo sapiens, UniProt P31391); settings: Table 3; mean ± SEM when N ≧ 3; read-out: sst4 binding affinity (IC50)
T4 construct: expressed in transfected cells; host or cells: CHO-K1 or CCL39 cells
Protocol: as §1, §2, §3, §4, §5, §6, §7

hSSTR5 = molecular target: T5, hSSTR5 (Homo sapiens, UniProt P35346); settings: Table 3; mean ± SEM when N ≧ 3; read-out: sst5 binding affinity (IC50)
T5 construct: expressed in transfected cells; host or cells: CHO-K1 or CCL39 cells
Protocol: as §1, §2, §3, §4, §5, §6, §7

T2 sequence (P30874 whole entry): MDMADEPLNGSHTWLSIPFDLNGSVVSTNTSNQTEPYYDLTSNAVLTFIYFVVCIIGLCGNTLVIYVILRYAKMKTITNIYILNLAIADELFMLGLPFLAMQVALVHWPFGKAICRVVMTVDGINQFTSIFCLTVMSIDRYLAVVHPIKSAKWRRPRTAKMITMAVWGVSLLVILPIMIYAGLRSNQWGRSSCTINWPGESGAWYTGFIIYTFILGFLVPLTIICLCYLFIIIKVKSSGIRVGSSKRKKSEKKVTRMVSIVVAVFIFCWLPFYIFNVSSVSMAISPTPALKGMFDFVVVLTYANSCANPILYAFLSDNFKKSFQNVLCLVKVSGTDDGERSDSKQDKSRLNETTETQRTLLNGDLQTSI
T5 sequence (P35346 whole entry): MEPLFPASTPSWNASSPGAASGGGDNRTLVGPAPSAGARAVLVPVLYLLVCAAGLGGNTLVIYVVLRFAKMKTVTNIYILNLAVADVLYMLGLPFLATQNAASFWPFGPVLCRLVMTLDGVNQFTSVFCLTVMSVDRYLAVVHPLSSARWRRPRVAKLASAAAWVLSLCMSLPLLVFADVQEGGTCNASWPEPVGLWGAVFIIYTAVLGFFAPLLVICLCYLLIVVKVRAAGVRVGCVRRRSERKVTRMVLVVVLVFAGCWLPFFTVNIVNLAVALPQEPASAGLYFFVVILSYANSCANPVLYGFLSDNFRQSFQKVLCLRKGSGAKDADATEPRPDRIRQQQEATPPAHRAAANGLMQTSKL
T3 sequence (P32745 whole entry): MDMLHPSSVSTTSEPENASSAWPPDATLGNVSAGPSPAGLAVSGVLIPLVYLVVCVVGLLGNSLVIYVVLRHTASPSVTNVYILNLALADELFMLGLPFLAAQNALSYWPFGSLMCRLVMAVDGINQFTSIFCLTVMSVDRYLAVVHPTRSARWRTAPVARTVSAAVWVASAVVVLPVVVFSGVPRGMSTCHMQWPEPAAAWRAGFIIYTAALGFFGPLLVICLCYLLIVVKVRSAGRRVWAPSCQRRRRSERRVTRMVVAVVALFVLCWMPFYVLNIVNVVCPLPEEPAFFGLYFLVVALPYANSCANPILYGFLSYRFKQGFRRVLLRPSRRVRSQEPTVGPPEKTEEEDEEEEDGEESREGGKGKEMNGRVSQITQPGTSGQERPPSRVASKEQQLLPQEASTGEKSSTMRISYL
T4 sequence (P31391 whole entry): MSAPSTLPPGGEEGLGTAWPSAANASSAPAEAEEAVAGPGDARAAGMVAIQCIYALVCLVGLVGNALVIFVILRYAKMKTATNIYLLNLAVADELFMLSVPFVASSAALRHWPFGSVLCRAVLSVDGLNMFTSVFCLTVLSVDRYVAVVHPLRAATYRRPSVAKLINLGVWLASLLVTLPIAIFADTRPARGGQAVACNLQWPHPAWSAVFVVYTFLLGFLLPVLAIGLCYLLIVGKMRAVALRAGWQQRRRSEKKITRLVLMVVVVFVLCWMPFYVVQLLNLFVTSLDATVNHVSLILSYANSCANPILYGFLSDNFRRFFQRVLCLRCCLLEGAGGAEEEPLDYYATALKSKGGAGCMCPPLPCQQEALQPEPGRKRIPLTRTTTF
T1 sequence (P30872 whole entry): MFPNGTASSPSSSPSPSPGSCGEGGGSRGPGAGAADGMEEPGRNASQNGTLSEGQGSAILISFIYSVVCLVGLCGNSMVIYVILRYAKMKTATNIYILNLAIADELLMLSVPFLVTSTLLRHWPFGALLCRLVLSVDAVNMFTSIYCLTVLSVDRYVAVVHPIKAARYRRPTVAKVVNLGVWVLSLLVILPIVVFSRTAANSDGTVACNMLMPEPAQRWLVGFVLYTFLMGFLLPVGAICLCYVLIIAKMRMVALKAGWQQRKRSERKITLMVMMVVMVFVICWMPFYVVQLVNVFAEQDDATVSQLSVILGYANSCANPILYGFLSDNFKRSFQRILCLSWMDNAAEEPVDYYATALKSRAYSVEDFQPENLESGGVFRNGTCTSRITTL

| IC50 (hSSTR1) [µM] | IC50 (hSSTR2) [µM] | IC50 (hSSTR3) [µM] | IC50 (hSSTR4) [µM] | IC50 (hSSTR5) [µM] | SMILES |
| --- | --- | --- | --- | --- | --- |
| > 1 | 0.0093 ± 0.0009 | 0.157 ± 0.049 | 0.883 ± 0.174 | 0.313 ± 0.035 | CONC(=O)Nc1ccc(C[C@@H]2NC(=O)[C@H](NC(=O)[C@@H](N)Cc3ccc(Cl)cc3)CSSC[C@@H](C(=O)N[C@@H](Cc3ccc4ccccc4c3)C(N)=O)NC(=O)[C@H]([C@@H](C)O)NC(=O)[C@H](CCCCN)NC(=O)[C@@H](Cc3c[nH]c4ccccc34)NC2=O)cc1 [compound 23, H2N-Cpa-c[DCys-Aph(CONH—OCH3)-DTrp-Lys-Thr-Cys]-2Nal-NH2] |
| > 1 | 0.0093 ± 0.0014 | 0.12 ± 0.045 | 0.813 ± 0.152 | 0.426 ± 0.189 | C[C@@H](O)[C@@H]1NC(=O)[C@H](CCCCN)NC(=O)[C@@H](Cc2c[nH]c3ccccc23)NC(=O)[C@H](Cc2ccc(NC(=O)NO)cc2)NC(=O)[C@H](NC(=O)[C@@H](N)Cc2ccc(Cl)cc2)CSSC[C@@H](C(=O)N[C@@H](Cc2ccc3ccccc3c2)C(N)=O)NC1=O [compound 24, H2N-Cpa-c[DCys-Aph(CONH—OH)-DTrp-Lys-Thr-Cys]-2Nal-NH2] |
| > 1 | 0.023 ± 0.0037 | 0.09 ± 0.011 | 0.905 ± 0.132 | 0.618 ± 0.248 | C[C@@H](O)[C@@H]1NC(=O)[C@H](CCCCN)NC(=O)[C@H](Cc2c[nH]c3ccc(F)cc23)NC(=O)[C@H](Cc2ccc(NC(N)=O)cc2)NC(=O)[C@H](NC(=O)[C@@H](N)Cc2ccc(Cl)cc2)CSSC[C@@H](C(=O)N[C@@H](Cc2ccc3ccccc3c2)C(N)=O)NC1=O [compound 26, H2N-Cpa-c[DCys-Aph(Cbm)-5F-Trp-Lys-Thr-Cys]-2Nal-NH2] (H-[Phe(4-Cl)][dC][Phe(4-NHCONH2)][Trp(5-F)]KTC[2Nal]-NH2; disulfide 2-7) |

More lines, now with the values behind:

| SMILES | IC50 (hSSTR1) [µM] | IC50 (hSSTR2) [µM] | IC50 (hSSTR3) [µM] | IC50 (hSSTR4) [µM] | IC50 (hSSTR5) [µM] |
| --- | --- | --- | --- | --- | --- |
| C[C@@H](O)[C@@H]1NC(=O)[C@H](CCCCN)NC(=O)[C@@H](Cc2c[nH]c3ccccc23)NC(=O)[C@H](Cc2ccc(NC(N)=O)cc2)NC(=O)[C@H](NC(=O)[C@@H](N)Cc2ccc(Cl)cc2)CSSC[C@@H](C(=O)N[C@H](Cc2ccc(NC(N)=O)cc2)C(N)=O)NC1=O [compound 20, H2N-Cpa-c[DCys-Aph(Cbm)-DTrp-Lys-Thr-Cys]-DAph(Cbm)-NH2] | > 1 | 0.0054 | 0.328 ± 0.069 | 0.8 ± 0.295 | 0.191 ± 0.049 |
| C[C@@H](O)[C@@H]1NC(=O)[C@H](CCCCN)NC(=O)[C@@H](Cc2c[nH]c3ccccc23)NC(=O)[C@H](Cc2ccc(NC(N)=O)cc2)NC(=O)[C@H](NC(=O)[C@@H](N)Cc2ccc(Cl)cc2)CSSC[C@@H](C(=O)N[C@@H](Cc2ccc(NC(N)=O)cc2)C(N)=O)NC1=O [compound 21, H2N-Cpa-c[DCys-Aph(Cbm)-DTrp-Lys-Thr-Cys]-Aph(Cbm)-NH2] | > 1 | 0.015 | 0.336 ± 0.046 | 0.551 ± 0.151 | 0.56 ± 0.144 |
| C[C@@H](O)[C@@H]1NC(=O)[C@H](CCCCN)NC(=O)[C@@H](Cc2c[nH]c3ccccc23)NC(=O)[C@H](Cc2ccc(NC(N)=O)cc2)NC(=O)[C@H](NC(=O)[C@@H](N)Cc2ccc(Cl)cc2)CSSC[C@@H](C(=O)N[C@H](Cc2ccc(NC(N)=O)cc2)C(=O)NCC(=O)O)NC1=O [compound 22, H2N-Cpa-c[DCys-Aph(Cbm)-DTrp-Lys-Thr-Cys]-DAph(Cbm)-GlyOH] (H-[Phe(4-Cl)][dC][Phe(4-NHCONH2)][dW]KTC[dPhe(4-NHCONH2)]G-OH; disulfide 2-7) | > 1 | 0.052 ± 0.0047 | 0.661 ± 0.115 | > 1 | 0.81 ± 0.2 |
